Laboratory results from the NIST ThermoML archive (doi:10.1016/j.jct.2019.01.016).
Values joined by “and” are separate entries in the source; they are usually repeats but may differ in a detail not shown here. Identical values can stand only once.

How the values were obtained:
[1] = for mass density: 101.33 kPa, X-ray diffraction; for Normal melting temperature: DTA
[2] = molar heat capacity at constant pressure; details: 101.33 kPa, Crystal 2, DSC
[3] = molar enthalpy of vaporization or sublimation; details: Static calorimetry
[4] = Molar enthalpy of transition or fusion; details: DSC

[C-]#[O+].[C-]#[O+].[C-]#[O+].[C-]#[O+].[C-]#[O+].[C-]#[O+].[C-]#[O+].[C-]#[O+].[C-]#[O+].[C-]#[O+].[Re].[Re] [decacarbonyldirhenium]
Details | mass density [kg/m3] | molar enthalpy [kcal/mol]
[1], 293 K, Crystal | 2932 | –
[3], 332.8 K, Crystal 2 | – | 23

Details | Molar enthalpy of transition or fusion [kcal/mol] | Normal melting temperature [°C] | Triple point temperature [K] | molar heat capacity at constant pressure [J/K/mol]
[1], Crystal 1 | – | 182.01 | – | –
[1], Crystal 2, DSC | – | – | 366.75 | –
[2], 298.15 K | – | – | – | 391.8
[2], 303.15 K | – | – | – | 396.5
[2], 308.15 K | – | – | – | 401.1
[2], 313.15 K | – | – | – | 405.5
[2], 318.15 K | – | – | – | 409.8
[2], 323.15 K | – | – | – | 413.9
[2], 328.15 K | – | – | – | 417.9
[2], 333.15 K | – | – | – | 421.8
[2], 338.15 K | – | – | – | 425.5
[4], Crystal 1 | 1 | – | – | –
[4], Crystal 2 | 3.66 | – | – | –

[CH3][Re](=[O])(=[O])=[O] [methyltrioxorhenium]
Crystal
Details | mass density, 167 K [kg/m3] | mass density, 214 K [kg/m3] | mass density, 296 K | molar enthalpy, 298 K [kcal/mol]
[1] | 4254 | 4199 | 4124 kg/m3 and 4132 kg/m3 | –
[3] | – | – | – | 16.79

Crystal
Details | Molar enthalpy of transition or fusion [kcal/mol] | Normal melting temperature [°C]
[1] | – | 112.59
[4] | 4.72 | –
